This is an account of results in patent publication US20080268460A1, “Assays to Identify Irreversibly Binding Inhibitors of Receptor Tyrosine Kinases” (Wyeth, priority 2004, published 2008).

Common to all, as to type: biochemical
In assay [1] the target is T1, KDR-FLAG enzyme (human KDR) (Homo sapiens, UniProt P35968).
T1 construct: starting at Met-806 (underlined) (5′-ATGGATCCAGATGAACTCCCATTG) and ending at Val-1356; made in house
Briefly: Enzyme wash-out assay, KDR-FLAG enzyme. The note with it: plate washed three times before ATP addition. On the procedure: (§1) Parallel plates were tested for each test compound wherein one plate was processed as described above in section 6.3 and the second plate was washed three times in 100 ul of 4 mM HEPES, pH 7.4, to remove unbound compound. 1× kinase buffer (30 ul 1 mM MnCl2, 4 mM HEPES, pH 7.4, 20 μM Na3VO4) and 20 ul of ATP/MgCl2 were then added to the wash-out plate. The KDR-FLAG enzyme, as described in 6.1, was used in these assays.

In assay [2] the target is T2, KDR-IC-FLAG (human KDR, VEGF-receptor 2) (Homo sapiens, UniProt P35968).
T2 construct: starting at Met-806 (underlined) (5′-ATGGATCCAGATGAACTCCCATTG) and ending at Val-1356; made in house
As to the kind of experiment: KDR kinase enzyme assay (DELFIA) using KDR-IC-FLAG kinase, no wash-out. The following applies: 10 uM ATP. An excerpt: Controls were done by adding DMSO alone, i.e., no test compound, to wells containing the master mix of enzyme plus kinase buffer.

In assay [3] the target is T3, KDR wild type enzyme (Homo sapiens, UniProt P35968).
T3 construct: beginning at Val-805 (forward, 5′ tag cgg ccg cGT CATGGATCCAGATGAACTCCCATT (lower case—NotI site)) and ending at Val-1356; GST-His (thrombin cleavage site) (N, cleaved yes); made in house; HEK293 possible
As to the kind of experiment: Enzyme wash-out assay, KDR wild type. As for the experimental part: as §1
(§2) This mutated protein was designated KDR-C1045A. Additionally, for comparison, the test compounds were assayed using the KDR wild type enzyme in both a basic enzyme assay as well as the enzyme wash-out assay.

Assay [4] deals with T3, KDR wild type enzyme. As to the kind of experiment: Basic enzyme assay, KDR wild type (GST-His-KDR-IC). The following applies: mean ± standard deviation (N). On the procedure:
as §2

The target in assay [5] is T4, KDR-C1045A (Homo sapiens, UniProt P35968, C1045A).
T4 construct: beginning at Val-805 (forward, 5′ tag cgg ccg cGT CATGGATCCAGATGAACTCCCATT (lower case—NotI site)) and ending at Val-1356; GST-His (thrombin cleavage site) (N); made in house; the mutant was also made in HEK293
Briefly: Enzyme wash-out assay, KDR-C1045A mutant enzyme. As for the experimental part: as §1
(§3) The protein was expressed in HEK293 or Sf9 cells as described for the wild type protein in sections 6.1 and 6.2. The protein was also purified using the FLAG or GST/His tags.
as §2

In assay [6] the target is T4, KDR-C1045A. Briefly: Basic enzyme assay, KDR-C1045A mutant enzyme. As for the experimental part: as §3, §2

T3 sequence (P35968 805-1356): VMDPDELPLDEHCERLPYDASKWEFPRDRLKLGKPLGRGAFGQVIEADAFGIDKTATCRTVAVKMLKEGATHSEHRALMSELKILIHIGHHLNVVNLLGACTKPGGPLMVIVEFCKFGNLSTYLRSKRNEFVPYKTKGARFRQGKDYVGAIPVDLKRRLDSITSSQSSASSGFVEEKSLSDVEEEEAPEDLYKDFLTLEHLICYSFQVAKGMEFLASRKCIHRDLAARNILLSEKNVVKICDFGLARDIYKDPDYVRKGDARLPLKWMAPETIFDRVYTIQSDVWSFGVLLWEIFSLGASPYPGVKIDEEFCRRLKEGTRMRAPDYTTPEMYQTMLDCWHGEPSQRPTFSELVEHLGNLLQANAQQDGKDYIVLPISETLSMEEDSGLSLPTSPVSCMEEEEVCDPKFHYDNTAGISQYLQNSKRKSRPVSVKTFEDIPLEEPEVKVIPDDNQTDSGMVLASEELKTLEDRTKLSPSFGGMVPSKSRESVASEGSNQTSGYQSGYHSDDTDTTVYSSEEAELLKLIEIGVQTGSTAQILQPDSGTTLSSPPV
T4 sequence (P35968 805-1356 C1045A): as the sequence (P35968 805-1356) above, with C241A counted along it
T2 sequence (P35968 806-1356): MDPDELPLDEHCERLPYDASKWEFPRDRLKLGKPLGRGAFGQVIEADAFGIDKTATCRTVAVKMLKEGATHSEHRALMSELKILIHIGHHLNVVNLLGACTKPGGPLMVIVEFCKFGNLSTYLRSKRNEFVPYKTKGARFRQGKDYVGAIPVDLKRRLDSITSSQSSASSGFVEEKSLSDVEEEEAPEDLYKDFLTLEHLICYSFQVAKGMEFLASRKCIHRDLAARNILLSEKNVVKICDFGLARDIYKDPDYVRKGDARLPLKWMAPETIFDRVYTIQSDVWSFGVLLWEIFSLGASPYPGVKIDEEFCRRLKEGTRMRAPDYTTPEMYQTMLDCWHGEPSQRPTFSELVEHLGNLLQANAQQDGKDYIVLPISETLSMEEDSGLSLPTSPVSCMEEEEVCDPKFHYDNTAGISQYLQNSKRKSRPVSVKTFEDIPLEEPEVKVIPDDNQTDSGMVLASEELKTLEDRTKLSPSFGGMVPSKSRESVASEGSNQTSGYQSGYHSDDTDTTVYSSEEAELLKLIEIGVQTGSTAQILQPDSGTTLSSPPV
T1 sequence (P35968 806-1356): as above

On to `COCCOc1cc2ncnc(NC3=C(Sc4nccs4)C(=O)C=C(OC)C3=O)c2cc1OC` [5-methoxy-3-{[6-methoxy-7-(2-methoxyethoxy)quinazolin-4-yl]amino}-2-(1,3-thiazoylthio)benzo-1,4-quinone], for which the figures for the half-inhibitory concentration (IC50) in assay [1] and in assay [2] were 33.1 nM and 17.9 nM, respectively.

As for `COc1cc2c(Oc3ccc4[nH]c(C)cc4c3F)c(C#N)cnc2cc1OCC1CCN(C)CC1` [4-[(4-fluoro-2-methyl-1H-indol-5-yl)oxy]-6-methoxy-7-[(1-methylpiperidin-4-yl)methoxy]quinoline-3-carbonitrile], the “loss of activity upon wash out, wild type KDR” value on KDR wild type enzyme [3] (wash out vs no wash out) is reported as “partially washed out”. Also, the concentration for half-maximal inhibition (IC50) on KDR wild type enzyme [3] (wash out, mean ± standard deviation (N)) was 277 nM; against KDR wild type enzyme [4], 63.2 ± 23.5 nM; at KDR-C1045A [5] (mean ± standard deviation (N)) it was over 1000 nM; at KDR-C1045A [6] (mean ± standard deviation (N)) it was 301 ± 140 nM. Also, the “KDR-C1045A, WASH OUT percent inhibition at the high dose tested” value at KDR-C1045A [5] (high dose tested) is 33%. For the same compound, the “loss of activity, mutant versus wild type KDR in basic enzyme assay” value on KDR-C1045A [6] (KDR-C1045A vs wild type) was “less than a five times loss of activity”.

What is called IC50 is the concentration that inhibits the measured activity by half. High values mean weaker potency, low ones greater potency.
